Reference: ChEMBL document CHEMBL1201862, “PubChem BioAssay data set” (2004)
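Method: 48-hour compound exposure of cells in 96-well plates, five concentrations, linear interpolation of endpoints. GI50 marks 50% less growth.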 The source made the active and inactive calls. Rule as the data show it: active = GI50 up to about 1.1 µM and inactive = higher.

What was measured:
Assay in all cases: NCI anticancer screen, dose series, 48 h
[1] = test system: NCI-H460
[2] = test system: HCT-15
[3] = test system: CAKI-1
[4] = test system: HCT-116
[5] = test system: SF-268
[6] = test system: RPMI-8226
[7] = test system: RXF 393
[8] = test system: DU-145
[9] = test system: K562
[10] = test system: SN12C
[11] = test system: ACHN
[12] = test system: MOLT-4
[13] = test system: NCI-H226
[14] = test system: TK-10
[15] = test system: NCI-H522
[16] = test system: OVCAR-8
[17] = test system: NCI/ADR-RES
[18] = test system: SR
[19] = test system: HT-29
[20] = test system: SK-MEL-28

| Compound | GI50 [1] | GI50 [2] [µM] | GI50 [3] | GI50 [4] | GI50 [5] | GI50 [6] | GI50 [7] | GI50 [8] | GI50 [9] | GI50 [10] | GI50 [11] | GI50 [12] | GI50 [13] | GI50 [14] | GI50 [15] | GI50 [16] | GI50 [17] | GI50 [18] | GI50 [19] | GI50 [20] |
| --- | --- | --- | --- | --- | --- | --- | --- | --- | --- | --- | --- | --- | --- | --- | --- | --- | --- | --- | --- | --- |
| COC(=O)C12CCC(C)(C)CC1C1=CCC3C4(C)CC(O)C(O)C(C)(C(=O)OC)C4CCC3(C)C1(CO)CC2 (stereo unspecified) | 15.7 µM (inactive) | 14.5 | 14 µM (inactive) | 13.7 µM (inactive) | 18.5 µM (inactive) | 12.1 µM (inactive) | 6.68 µM (inactive) | 15.5 µM (inactive) | 15.6 µM (inactive) | 18.3 µM (inactive) | 13.9 µM (inactive) | 8.13 µM (inactive) | 16.9 µM (inactive) | 19 µM (inactive) | 14.9 µM (inactive) | 13.6 µM (inactive) | 12.9 µM (inactive) | 3.42 µM (inactive) | 13.6 µM (inactive) |  |
| O=C(O)c1cc(/N=N/c2ccc([As](=O)(O)O)cc2)ccc1O | > 100 µM (inactive) | > 100 | > 100 µM (inactive) | > 100 µM (inactive) | > 100 µM (inactive) | > 100 µM (inactive) | > 100 µM (inactive) | > 100 µM (inactive) | > 100 µM (inactive) | > 100 µM (inactive) | > 100 µM (inactive) | > 100 µM (inactive) | > 100 µM (inactive) | > 100 µM (inactive) | > 100 µM (inactive) | > 100 µM (inactive) | > 100 µM (inactive) | > 100 µM (inactive) | > 100 µM (inactive) | > 100 µM (inactive) |
| C[N+]12C=CC=C1C(N1CCCC1)c1scc(-c3ccc(F)cc3)c12 (stereo unspecified) |  |  | > 100 µM (inactive) | 46.2 µM (inactive) | 32.4 µM (inactive) | 10.4 µM (inactive) | 24.5 µM (inactive) | 81.7 µM (inactive) | 5.74 µM (inactive) | 11.1 µM (inactive) |  | 21.6 µM (inactive) | 23.5 µM (inactive) |  | 17.6 µM (inactive) | 40.4 µM (inactive) | > 100 µM (inactive) | 11 µM (inactive) | 18.3 µM (inactive) | 66.5 µM (inactive) |
| CCOC(=O)CCc1cc(=O)oc2cc(O)cc(O)c12 | > 100 µM (inactive) | > 100 | > 100 µM (inactive) | > 100 µM (inactive) | > 100 µM (inactive) | > 100 µM (inactive) | > 100 µM (inactive) | > 100 µM (inactive) | > 100 µM (inactive) | > 100 µM (inactive) | > 100 µM (inactive) | > 100 µM (inactive) | > 100 µM (inactive) | > 100 µM (inactive) | > 100 µM (inactive) | > 100 µM (inactive) | > 100 µM (inactive) | > 100 µM (inactive) | > 100 µM (inactive) | > 100 µM (inactive) |
| CCN(CC)CCOC(=O)CCN1CC2CCC(CC2)C1 | > 100 µM (inactive) | > 100 | > 100 µM (inactive) | > 100 µM (inactive) |  | > 100 µM (inactive) | > 100 µM (inactive) | > 100 µM (inactive) | > 100 µM (inactive) |  | > 100 µM (inactive) | > 100 µM (inactive) | > 100 µM (inactive) | > 100 µM (inactive) | > 100 µM (inactive) | > 100 µM (inactive) | > 100 µM (inactive) | > 100 µM (inactive) | > 100 µM (inactive) | > 100 µM (inactive) |
| CC(=O)c1nc2ccccc2n1C(C)C(=O)c1ccccc1 (stereo unspecified) | 33 µM (inactive) | 81.5 | 61.5 µM (inactive) | 50.4 µM (inactive) | 26.5 µM (inactive) | 51.6 µM (inactive) | > 100 µM (inactive) | 64.9 µM (inactive) | 36.5 µM (inactive) | 56.6 µM (inactive) |  | 34.9 µM (inactive) | > 100 µM (inactive) | 91.8 µM (inactive) | 15.5 µM (inactive) | 23.1 µM (inactive) | 46 µM (inactive) | 36.3 µM (inactive) | > 100 µM (inactive) | > 100 µM (inactive) |
| Nc1ccc2c(SCc3ccc([N+](=O)[O-])cc3)c3ccccc3nc2c1 | 21.7 µM (inactive) | 13.5 | 13.3 µM (inactive) | 7.53 µM (inactive) | 15.2 µM (inactive) | 2.7 µM (inactive) | 19.4 µM (inactive) | 13.4 µM (inactive) | 3.54 µM (inactive) | 18.6 µM (inactive) | 5 µM (inactive) | 2.3 µM (inactive) | 18.7 µM (inactive) | 11.9 µM (inactive) | 3.47 µM (inactive) | 13.2 µM (inactive) | 18.2 µM (inactive) | 1.42 µM (inactive) | 17.5 µM (inactive) | 15.6 µM (inactive) |
| CCOc1c(OC)cc(C2c3cc4c(c(OCC)c3CC3COC(=O)C32)OCO4)cc1OC (stereo unspecified) | 3.21 µM (inactive) | 0.608 | 5.16 µM (inactive) | 2.16 µM (inactive) | 7.21 µM (inactive) | 3.75 µM (inactive) | 4.6 µM (inactive) | 2.69 µM (inactive) | 1.83 µM (inactive) | 2.21 µM (inactive) | 1.79 µM (inactive) | 2.65 µM (inactive) | 6.84 µM (inactive) | 5.87 µM (inactive) | 2.25 µM (inactive) | 2.11 µM (inactive) | 2.03 µM (inactive) | 0.247 µM (active) | 2.47 µM (inactive) | 16.6 µM (inactive) |
| Cc1ccc(S(=O)(=O)NC(=O)NC(C(=O)O)C(C)C)cc1 (stereo unspecified) | > 100 µM (inactive) | > 100 |  | > 100 µM (inactive) | > 100 µM (inactive) | > 100 µM (inactive) | > 100 µM (inactive) | > 100 µM (inactive) | > 100 µM (inactive) | > 100 µM (inactive) | > 100 µM (inactive) | > 100 µM (inactive) |  | > 100 µM (inactive) | > 100 µM (inactive) | > 100 µM (inactive) | > 100 µM (inactive) | > 100 µM (inactive) | > 100 µM (inactive) | > 100 µM (inactive) |
| Fc1ccc(NCn2nc(COc3ccccc3Cl)n(/N=C/c3ccc(-c4ccc(Cl)cc4Cl)o3)c2=S)cc1Cl | 32.7 µM (inactive) | 26.7 | 34.4 µM (inactive) | 28.4 µM (inactive) | 79.1 µM (inactive) | 22.3 µM (inactive) | 21.5 µM (inactive) | 47.6 µM (inactive) | 15.4 µM (inactive) |  | 29.5 µM (inactive) | 16.1 µM (inactive) | 83.8 µM (inactive) | 31.8 µM (inactive) | 36.7 µM (inactive) | 36.1 µM (inactive) | 43.5 µM (inactive) | 16.6 µM (inactive) | > 100 µM (inactive) | > 100 µM (inactive) |
| N[C@H]1CCN(c2c(F)cc3c(=O)c(C(=O)O)cn4c3c2Oc2cc3c(ccc5ccccc53)cc2-4)C1 | 1.94 µM (inactive) | 3.98 | 3.6 µM (inactive) | 2.87 µM (inactive) |  | 1.58 µM (inactive) | 6.41 µM (inactive) | 4.05 µM (inactive) | 2.82 µM (inactive) | 3.23 µM (inactive) | 2.32 µM (inactive) | 1.45 µM (inactive) | 2.58 µM (inactive) | 4.44 µM (inactive) | 4 µM (inactive) | 2.96 µM (inactive) | 8.17 µM (inactive) | 2.52 µM (inactive) | 3.08 µM (inactive) |  |
| CC1=C(C#N)C2C(=C(N)Oc3ccccc32)C(N)=N1 (stereo unspecified) |  | 17.9 | 19.1 µM (inactive) | 24.4 µM (inactive) | 24.5 µM (inactive) | 24 µM (inactive) | 22.7 µM (inactive) | 21.1 µM (inactive) | 29.7 µM (inactive) | 23.7 µM (inactive) | 27.7 µM (inactive) | 75 µM (inactive) | 12.2 µM (inactive) | 21.1 µM (inactive) | 15.4 µM (inactive) | 25.1 µM (inactive) | 19.3 µM (inactive) | 40.8 µM (inactive) | 27.2 µM (inactive) |  |
| CC(=O)OCC1OC(n2c3c(c(-c4cccc5ccccc45)c(C#N)c2=S)CCCC3)C(OC(C)=O)C(OC(C)=O)C1OC(C)=O (stereo unspecified) | > 100 µM (inactive) | > 100 |  | > 100 µM (inactive) | > 100 µM (inactive) |  | > 100 µM (inactive) | > 100 µM (inactive) | > 100 µM (inactive) | > 100 µM (inactive) | > 100 µM (inactive) | > 100 µM (inactive) | > 100 µM (inactive) | > 100 µM (inactive) | > 100 µM (inactive) | > 100 µM (inactive) | > 100 µM (inactive) | > 100 µM (inactive) | > 100 µM (inactive) | > 100 µM (inactive) |
| OCC1OC(Oc2cc(O)cc(/C=C\c3ccc(O)cc3)c2)C(O)C(O)C1O (stereo unspecified) | > 100 µM (inactive) | > 100 | > 100 µM (inactive) | > 100 µM (inactive) |  | > 100 µM (inactive) | > 100 µM (inactive) | > 100 µM (inactive) | > 100 µM (inactive) | > 100 µM (inactive) | > 100 µM (inactive) | > 100 µM (inactive) | > 100 µM (inactive) | > 100 µM (inactive) | > 100 µM (inactive) | > 100 µM (inactive) | > 100 µM (inactive) | > 100 µM (inactive) | > 100 µM (inactive) | > 100 µM (inactive) |
| CC1C(=O)CC[C@@]2(C)C(=O)CCCC12O (stereo partly specified) | > 100 µM (inactive) | > 100 | > 100 µM (inactive) | > 100 µM (inactive) | > 100 µM (inactive) | > 100 µM (inactive) | > 100 µM (inactive) | > 100 µM (inactive) | > 100 µM (inactive) | > 100 µM (inactive) | > 100 µM (inactive) | > 100 µM (inactive) | > 100 µM (inactive) | > 100 µM (inactive) | > 100 µM (inactive) |  | > 100 µM (inactive) | > 100 µM (inactive) | > 100 µM (inactive) | > 100 µM (inactive) |
